The record followed here is US20220249413A1, “SWELL 1 MODULATORS FOR TREATMENT OF NON-ALCOHOLIC FATTY LIVER DISEASE, IMMUNE DEFICIENCIES, MALE INFERTILITY AND VASCULAR DISEASES” (priority 2019, published 2022).

SMILES strings stand for the structures.

The target of the assay is T1, ICl,SWELL (Homo sapiens, UniProt Q8IWT6).
T1 construct: endogenous in cells; host or cells: HEK cells (printed 'BEK cells')
T1 sequence (Q8IWT6 1-810): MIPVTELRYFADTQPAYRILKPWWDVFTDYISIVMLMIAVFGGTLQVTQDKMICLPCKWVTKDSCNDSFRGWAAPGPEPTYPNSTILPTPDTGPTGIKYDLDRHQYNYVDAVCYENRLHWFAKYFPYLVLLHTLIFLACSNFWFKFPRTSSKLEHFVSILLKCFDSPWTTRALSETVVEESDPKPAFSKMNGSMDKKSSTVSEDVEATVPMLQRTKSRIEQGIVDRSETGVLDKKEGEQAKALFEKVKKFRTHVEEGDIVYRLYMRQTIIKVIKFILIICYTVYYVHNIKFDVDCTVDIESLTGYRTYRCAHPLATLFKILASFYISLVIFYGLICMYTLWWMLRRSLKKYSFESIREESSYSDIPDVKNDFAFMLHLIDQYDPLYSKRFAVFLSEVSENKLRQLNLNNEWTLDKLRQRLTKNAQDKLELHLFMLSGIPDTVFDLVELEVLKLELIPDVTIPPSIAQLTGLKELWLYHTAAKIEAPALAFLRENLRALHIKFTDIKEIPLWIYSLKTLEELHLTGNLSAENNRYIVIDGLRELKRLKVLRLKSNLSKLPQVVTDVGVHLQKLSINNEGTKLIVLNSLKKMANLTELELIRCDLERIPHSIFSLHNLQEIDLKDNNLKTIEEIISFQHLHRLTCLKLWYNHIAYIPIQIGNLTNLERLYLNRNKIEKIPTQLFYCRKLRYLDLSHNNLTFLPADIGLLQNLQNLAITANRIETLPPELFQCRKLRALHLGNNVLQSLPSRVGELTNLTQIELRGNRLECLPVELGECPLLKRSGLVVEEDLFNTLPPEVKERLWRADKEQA
Briefly: ICl,SWELL patch-clamp upon hypotonic stimulation. The format is cell-based. Particulars: 10 μM Smod1, HEK cells (FIG. 2f). As to the method: For Smod1 (DCPIB) mediated induction of SWELL1 and insulin signaling studies in 3T3-F442A preadipocytes, the cells were incubated with either vehicle (DMSO) or 10 μM Smod1 for 96 h. The cells were serum starved for 6 h (+DMSO or Smod1) and stimulated with 0, 3 and 10 nM insulin containing media (−DMSO or Smod1), as described above for 15 mins and the lysates were collected. In the case of 3T3-F442A adipocytes, the WT and KO cells were treated with either vehicle (DMSO) or 10 μM Smod1 following 7-11 days of differentiation for 96 h and then stimulated with 0 and 10 nM insulin for 15 min, as described above. Human embryonic kidney (HEK) cells were cultured and maintained in 90% DMEM (25 mM D-Glucose and 4 mM L-Glutamine) containing 10% fetal bovine serum (FBS) and 100 IU penicillin and 100 μg/ml streptomycin media.
Electrophysiology Patch-clamp recordings of β-cells and mature adipocytes were performed as described previously (Zhang et al., Nat Cell Biol, 19, 504-517, 2017; Kang et al., Nature Communications, 9, 367, 2018). 3T3-F442A WT and KO preadipocytes were prepared as described in the Cell culture section above. […] Recordings were measured using Axopatch 200B amplifier paired to a Digidata 1550 digitizer using pClamp 10.4 software. […] The images were further analyzed for band intensities using ImageJ software. […]
On the technique in general: The patch-clamp technique gives a direct electrical read-out from membranes.

Regarding `CCCCC1(C2CCCC2)Cc2cc(OCCCC(=O)O)c(Cl)c(Cl)c2C1=O` (stereo not shown) [Smod1, 4-[(2-Butyl-6,7-dichloro-2-cyclopentyl-2,3-dihydro-1-oxo-1H-inden-5-yl)oxy]butanoic acid], the “ICl,SWELL inward and outward current after hypotonic stimulation” value was “inhibition”.
